# Experimental data reported in patent EP0389975A1, “Intranasal administration of physostigmine and arecoline” (priority 1989, dated 1990).
# Where two headings read alike, the source gives them in different places.
# How the values were obtained:
# [1] = tested on: patients having Alzheimer presenile dementia; conditions: cited from earlier work
# [2] = tested on: normal human subjects; conditions: cited from earlier work
# [3] = cited from earlier work
# [4] = In situ-in vivo nasal study: dosing in one nostril and washing out from the other; set-up: species or system rats; conditions: after 15 minutes of dosing in one nostril
# [5] = tested on: rats; assay: Survival of rats after arecoline administration by different routes; type: in vivo
# Procedure: (§1) The blood samples were collected into heparinized test tubes. […] Plasma was separated immediately and stored frozen.
# Plasma arecoline concentrations were determined after nasal and i.m. administration of the compound. After intranasal administration, arecoline was absorbed very rapidly (tmax= 3 +/- 1.6 min), faster than after i.m. administration (tmax=13.3 +/- 6.2 min). […] It is not known why absorption after i.m. was slower. […] Bolus i.v. studies were also performed, but the rats died. […]
# [6] = Pharmacokinetics of arecoline in rats after intranasal and intramuscular administration; type: in vivo, Male Lewis rats; conditions: for Tmax / half-life / AUC / Cmax: male, Lewis, rat, plasma; for AUC / Cmax: n=3 rats
# Procedure: as §1
# The analytical method of arecoline in plasma was performed by gas-chromatography-mass spectrometry (GC-MS) after solvent extraction using a method similar to that described in Beil, et al., Drug Develop Res, 9, 203-212 (1986). Nicotine was used as an internal standard. In this method, 50µl of nicotine solution in chloroform (1.5 µg/ml and 50 µl of 10% triethylamine in chloroform were added to 0.5 ml cold plasma in a 5 ml test tube with a screw cap. The tubes were vortexed for 1 minute and centrifuged for 10-15 minutes. The organic layer was then removed, placed in a micro vial and sealed with perfluoroethylene tape such as Teflon®, until analysis.
# GC-MS analysis was performed using an HP-1 column, (crosslinked methyl silicon, 12 m x […] x 0.33 µm film thickness). Two µl aliquots were injected onto the column in a splitless mode. Helium was used as a carrier gas. Detection was accomplished using a gas chromatograph electron impact mass selective detector set at m/z=155 and 162. The limit of arecoline detection was 15 ng/ml.
# [7] = Pharmacokinetics of physostigmine in rats after intravenous and intranasal administration
# Procedure: Male Lewis rats, each weighing approximately 300 grams were anesthesized with pentobarbital (50 mg/kg i.p.). The jugular vein was cannulated and attached to a syringe through a three way stopcock for blood collections. For nasal administration of physostigmine and arecoline, an incision was made in the neck of the animals and the trachea was cannulated with a polyethylene (PE) tube. A closed tube was inserted through the esophagus to the posterior part of the nasal cavity. The nasopalatine passage was closed with an adhesive agent to prevent drainage of the drug from the nasal cavity to the mouth. An aqueous solution of physostigmine hemi-sulfate (obtained from Sigma Chemical, St. Louis, Mo.) dose equivalent to 200 µg/kg of physostigmine base in a volume of 150 µl/kg was administered to the nasal cavity by means of a Hamilton syringe with PE tubing attached to the end. For arecoline hydrobromide (obtained from Sigma Chemical, St. Louis, MO.), an aqueous solution with a dose of 2 mg/kg was administered in a volume of 150 µl/kg. Blood samples (1 ml) were withdrawn through the jugular cannula and replaced with equal volume of fresh blood after each sampling as a function of time. For intravenous administration of physostigmine the same dose as nasal (200 µg/kg) in a volume of 1 ml/kg was injected through the femoral vein. For intramuscular arecoline hydrobromide, the dose was 1 mg/kg in a volume of 1 ml/kg injected into the biceps femoris. The blood samples were collected into heparinized test tubes. In the case of physostigmine the tubes also contained 50 µl of a 100 µg/ml neostigmine bromide (as a stabilizer for physostigmine). Plasma was separated immediately and stored frozen.
# The analytical method for physostigmine in plasma was a modification of that described in Brodie, et al., J. Chromatogr. 415, 423-431 (1987). Plasma samples (0.5 ml) were pipetted into extraction tubes, and 0.2 ml of an aqueous solution of 3,3-bis(4- pyridylmethyl)-1-phenyl indolin-2-one as an internal standard (1.5 µg/ml), 2 ml of ethylacetate and 0.2 ml of a 3.5% sodium carbonate solution were added. The tubes were shaken mechanically for 0.5 minute and centrifuged for 5 minutes. The organic layer was then transferred to 12 X 75 mm tubes, evaporated to dryness under a steam of nitrogen, and the residue was reconstituted in 0.2 ml acetonitrile. After mechanical shaking (2 minutes), aliquots (125 µl) were analyzed by High Performance Liquid Chromatography (HPLC) using a dual detection system, where detection of physostigmine was by a fluorimetric detector and detection of the internal standard was by an ultraviolet (u.v.) detector.
# Separation was achieved on a 25 cm x 4.6 mm reverse phase (Zorbax® C₈, Du Pont) column attached to a guard column with C₈ packing at ambient temperature The mobile phase contained 0.2 M ammonium acetate-acetonitrile (2:3), adjusted to pH 8.2-8.3 with triethylamine and was delivered at a flow rate of 1.5 ml/min. Detection of physostigmine was by fluorimetric detector (Spectroflow 980 Programmable Fluorescence Detector, Kratos) operated at excitation and emission wavelengths of 254 and 320 nm, respectively. Detection of the internal standard was by u.v. detector (Lambda-Max Model 481 LC Spectrophotometer, Waters instrument) set at 254 nm. […] The other components of the HPLC system were a Waters 590 Programmable HPLC pump, an autosampler (Waters WISP 710B) and a recording integrator (Hewlett-Packard Model 3393A).
# [8] = im, 1 mg/kg, after i.m. administration
# [9] = im, Intramuscular, 1 mg/kg Arecoline HBr
# [10] = inhaled or intranasal, 2 mg/kg, after intranasal administration
# [11] = inhaled or intranasal, Intranasal, 2 mg/kg Arecoline HBr
# [12] = male, Lewis, rat, plasma, inhaled or intranasal, 200 ug/kg
structure (smiles),measurement,setting,value
COC(=O)C1=CCCN(C)C1 [arecoline],picture recognition tests,[1]; 2 mg doses,trend toward improvement
same,picture recognition tests,[1]; intravenous administration of 4 mg,improvement
same,serial learning,[2],significantly enhanced
same,bioavailability upon oral administration,[3],not bioavailable
same,residual arecoline in the nose,[4],no residual arecoline
same,death of rats,[5]; bolus i.v.,the rats died
same,death of rats,[5]; i.m. administration,None of the rats died
same,death of rats,[5]; intranasal administration,None of the rats died
same,Tmax,"[6]; im, 1 mg/kg, Intramuscular, 1 mg/kg Arecoline HBr, n=3 rats (Table 2)",5.43 min
same,Tmax,[6]; [8],13.3 min
same,half-life,[6]; [8],5.4 ± 1.1 min
same,AUC,[6]; [9],77.7 ng·h/mL
same,Cmax,[6]; [9],249 ± 22 ng/mL
same,Tmax,"[6]; inhaled or intranasal, 2 mg/kg, Intranasal, 2 mg/kg Arecoline HBr, n=3 rats (Table 2)",3 min
same,Tmax,[6]; [10],3 min
same,half-life,[6]; [10],2 ± 0.6 min
same,AUC,[6]; [11],141 ng·h/mL
same,Cmax,[6]; [11],1750 ± 523 ng/mL
same,Bioavilability,[6]; ratio of AUC (nasal/intramuscular) X 100,85%
CNC(=O)Oc1ccc2c(c1)[C@]1(C)CCN(C)[C@@H]1N2C [physostigmine],picture recognition tests,[1]; 0.25 mg and 0.75 mg doses,trend toward improvement
same,picture recognition tests,[1]; intravenous administration of 0.375 mg,improvement
same,Tmax,"[7]; Nasal, 200 µg/kg, n = 7 rats (Table 1)",6.5 ± 1.7 min
same,AUC,[7]; [12],38.9 ng·h/mL
same,Cmax,[7]; [12],86 ± 5 ng/mL
same,Tmax,[7]; [12],6.5 min
same,half-life,[7]; [12],36 ± 16 min
same,AUC,"[7]; male, Lewis, rat, plasma, iv, 200 ug/kg",40.2 ng·h/mL
same,bioavailability,"[7]; male, Lewis, rat, plasma, iv, 200 µg/kg",97%
